Columns and labels:
rat VAP-1 enzyme (SSAO) = rat VAP-1 enzyme (SSAO) (Rattus norvegicus (Rat), UniProt O08590); assay: Inhibitory effect on rat VAP-1 enzyme (SSAO) activity, radiochemistry-enzymatic assay with 14C-benzylamine; type: biochemical; conditions: enzyme from CHO cells expressing rat VAP-1; 14C-benzylamine 1×10^−5 mol/L
Description: Inhibitory Effect of Compound on Rat VAP-1 Enzyme (SSAO) Activity
(§1) A rat VAP-enzyme 1 (SSAO) activity was measured by a radiochemistry-enzymatic assay using ^14C-benzylamine as an artificial substrate. An enzyme suspension prepared from CHO (Chinese Hamster Ovary) cells stably expressing a rat VAP-enzyme 1 (SSAO) was preincubated with the compound of the present invention in a 96-well microplate at room temperature for 30 minutes. Subsequently, the enzyme suspension was incubated with ^14C-benzylamine (a final concentration of 1×10^−5 mol/L) to a final volume of […] at 37° C. for 1 hour. The enzymatic reaction was stopped by the addition of 2 mol/L (50 μL) of citric acid. The oxidation products were extracted directly in a 200-μL toluene scintillator, and the radioactivity was measured with a scintillation spectrometer.
(§2) In addition, the inhibitory activity is expressed in IC50 (nmol/L).

[1] = system: VAP-1 enzyme activity in plasma; assay: Plasma VAP-1 enzyme activity after oral administration to rats (radio-enzyme assay); type: in vivo, Wistar male rats; conditions: rat, oral 1 mg/kg; for Inhibition Ratio (%) of plasma VAP-1 activity, 1 h: 1 h after administration; for Inhibition Ratio (%) of plasma VAP-1 activity, 3 h: 3 h after administration; for Inhibition Ratio (%) of plasma VAP-1 activity, 6 h: 6 h after administration; for Inhibition Ratio (%) of plasma VAP-1 activity, 12 h: 12 h after administration
Description: Eight-week to twelve-week Wistar male rats were fasted for 20 hours, and orally administered with a test drug (1 mg/1 kg). Heparin blood collection from the tail vein was performed immediately before the administration, and at 1 h, 3 h, 6 h, and 12 h after the administration. The resulting blood was subjected to centrifugation at 14000 rpm for 5 minutes to separate plasma, and the VAP-1 enzyme activity in the resulting plasma was measured by a radio-enzyme assay method.
For the radio-enzyme assay method, ^14C-benzylamine which is a synthetic substrate (10 μM) was reacted with the resulting plasma at 37° C., and the resulting metabolite was extracted with a mixture of toluene/ethyl acetate. The radioactivity was measured and taken as a VAP-1 enzyme activity in the plasma. The effect of the test drug was calculated from the ratio (%) of the VAP-1 activity after the administration of the test drug relative to the VAP-1 activity in the plasma immediately before the administration (100%).

[2] = target: human VAP-1 enzyme (SSAO) (Homo sapiens (Human), UniProt Q16853); assay: Inhibitory effect on human VAP-1 enzyme (SSAO) activity, radiochemistry-enzymatic assay with 14C-benzylamine; type: biochemical; conditions: enzyme from CHO cells expressing human VAP-1; 14C-benzylamine 1×10^−5 mol/L
Sequence of human VAP-1 enzyme (SSAO) (Q16853 whole entry): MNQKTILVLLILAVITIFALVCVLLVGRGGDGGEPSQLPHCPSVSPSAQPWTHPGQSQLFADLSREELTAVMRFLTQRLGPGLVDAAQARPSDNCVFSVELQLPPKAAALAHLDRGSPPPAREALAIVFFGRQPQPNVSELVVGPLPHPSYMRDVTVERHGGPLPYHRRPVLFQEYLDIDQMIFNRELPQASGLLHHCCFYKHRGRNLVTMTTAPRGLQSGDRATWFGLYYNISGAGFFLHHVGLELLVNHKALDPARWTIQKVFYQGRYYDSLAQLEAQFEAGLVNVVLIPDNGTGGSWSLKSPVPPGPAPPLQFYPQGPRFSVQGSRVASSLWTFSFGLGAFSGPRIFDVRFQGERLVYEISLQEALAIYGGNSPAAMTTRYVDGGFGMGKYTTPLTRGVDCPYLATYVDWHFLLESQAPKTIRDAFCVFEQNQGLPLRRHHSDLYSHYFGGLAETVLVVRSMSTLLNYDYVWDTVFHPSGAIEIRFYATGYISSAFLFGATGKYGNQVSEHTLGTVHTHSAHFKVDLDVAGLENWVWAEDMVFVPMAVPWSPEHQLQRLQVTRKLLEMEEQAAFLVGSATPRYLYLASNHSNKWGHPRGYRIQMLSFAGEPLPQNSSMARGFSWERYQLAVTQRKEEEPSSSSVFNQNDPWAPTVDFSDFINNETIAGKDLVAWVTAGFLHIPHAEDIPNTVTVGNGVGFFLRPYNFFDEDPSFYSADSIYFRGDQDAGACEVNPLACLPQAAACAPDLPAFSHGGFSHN
Description: Inhibitory Effect of Compound on Human VAP-1 Enzyme (SSAO) Activity
as §1, with “human VAP-1 enzyme” for “rat VAP-enzyme 1”
as §2

Sequence of rat VAP-1 enzyme (SSAO) (O08590 whole entry): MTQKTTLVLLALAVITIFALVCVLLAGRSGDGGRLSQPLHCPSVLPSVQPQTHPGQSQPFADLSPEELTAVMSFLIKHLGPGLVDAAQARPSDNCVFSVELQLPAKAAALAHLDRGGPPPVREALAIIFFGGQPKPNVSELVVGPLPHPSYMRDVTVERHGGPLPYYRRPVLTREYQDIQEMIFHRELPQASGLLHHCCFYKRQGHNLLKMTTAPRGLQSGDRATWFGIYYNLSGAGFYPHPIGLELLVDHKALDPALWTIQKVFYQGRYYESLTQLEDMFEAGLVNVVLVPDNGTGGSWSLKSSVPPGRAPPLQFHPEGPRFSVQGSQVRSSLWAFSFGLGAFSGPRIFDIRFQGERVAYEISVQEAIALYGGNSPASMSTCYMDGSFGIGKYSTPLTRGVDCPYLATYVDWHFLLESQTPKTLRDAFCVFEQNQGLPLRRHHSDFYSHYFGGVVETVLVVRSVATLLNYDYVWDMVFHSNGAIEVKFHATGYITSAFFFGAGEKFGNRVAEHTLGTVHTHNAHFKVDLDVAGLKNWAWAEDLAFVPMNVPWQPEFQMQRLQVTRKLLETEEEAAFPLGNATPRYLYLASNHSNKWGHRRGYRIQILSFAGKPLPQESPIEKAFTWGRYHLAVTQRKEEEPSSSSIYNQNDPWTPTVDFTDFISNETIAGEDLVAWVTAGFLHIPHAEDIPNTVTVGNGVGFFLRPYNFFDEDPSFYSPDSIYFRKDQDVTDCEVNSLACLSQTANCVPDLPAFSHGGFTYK

Row | Compound | IC50 (rat VAP-1 enzyme (SSAO)) [nM] | Inhibition Ratio (%) of plasma VAP-1 activity, 1 h [1] [%] | Inhibition Ratio (%) of plasma VAP-1 activity, 3 h [1] [%] | Inhibition Ratio (%) of plasma VAP-1 activity, 6 h [1] [%] | Inhibition Ratio (%) of plasma VAP-1 activity, 12 h [1] [%] | IC50 [2] [nM]
1 | CN(Cc1cccc(-c2cnc(N3CCC(N4CCOCC4)CC3)nc2)c1)C(=O)CN [Example 51] | 21 | 30 | 37 | 43 | 32 | 48
2 | CN(Cc1cccc(-c2cnc(N3CCC(O)CC3)nc2)c1)C(=O)CN [Ex 84] | 15 | 16 | 20 | 17 |  | 140
3 | CN(Cc1cccc(-c2cnc(N3CCN(c4ncc(C(=O)O)cc4Cl)CC3)nc2)c1)C(=O)CN [Example 32] | 10 | 68 | 70 | 58 | 45 | 18
4 | Cc1cccnc1N1CCN(c2ncc(-c3cccc(CN(C)C(=O)CN)c3)cn2)CC1 [Example 3, N-methyl-N-(3-{2-[4-(3-methylpyridin-2-yl)piperazin-1-yl]pyrimidin-5-yl}benzyl)glycinamide L-tartrate] | 22 | 65 | 77 | 71 | 47 | 32
5 | CN(Cc1cccc(-c2cnc(N3CC[C@H](F)C3)nc2)c1)C(=O)CN [Example 16] | 7.4 | 83 | 83 | 53 | 42 | 49
6 | CN(Cc1cccc(-c2cnc(N3CCN(c4ncccc4Cl)CC3)nc2)c1)C(=O)CN [Ex 147] | 44 | 70 | 79 | 75 | 66 | 72
7 | CN(Cc1cccc(-c2cnc(N3CCOC(CO)C3)nc2)c1)C(=O)CN (centres unmarked) [Ex 79] | 34 | 24 | 21 | 15 | 14 | 66
8 | CN(Cc1cccc(-c2cnc(N3CCS(=O)(=O)CC3)nc2)c1)C(=O)CN [Ex 216] | 40 | 25 | −7 | 15 | 25 | 90
9 | Cc1ncccc1N1CCN(c2ncc(-c3cccc(CN(C)C(=O)CN)c3)cn2)CC1 [Ex 91] | 12 | 68 | 68 | 68 | 44 | 18
10 | CN(Cc1cccc(-c2cnc(N3Cc4cccnc4C3)nc2)c1)C(=O)CN [Ex 95] | 5.8 | 70 | 67 | 71 | 21 | 11
11 | C[C@@H]1CN(c2ccc(-c3cccc(CN(C)C(=O)CN)c3)cn2)C[C@H](C)O1 [Ex 80] | 39 | 48 | 43 | 26 | 21 | 81
